Where “and” joins values, the source holds several entries; their conditions need not be identical. Equal entries are not always repeated.
System: PDC KRAS tumor spheroids with HUVEC/MSC, viability
Assay: Anticancer human tumor 349418-098-R-PDC patient-derived lung adenocarcinoma cell line growth inhibition [KRAS2]
Conditions: for viability, T/C: stronger effect = lower value
From the text: Multicellular complex tumor spheroid response to RAS pathway inhibitors in combination with a targeted agents in patient-derived cell lines with oncogenic KRAS variants from multiple cancer types
A high-throughput screen of multi-cell type tumor spheroids was designed to identify active combinations of targeted small molecules and KRAS pathway inhibitors. Complex spheroids include a stromal component modeled by human endothelial cells (HUVEC) and fibroblasts modeled by human mesenchymal stem cells (MSCs). The concentration ranges selected for each drug and investigational agent were based upon clinically achievable concentrations if the clinical Cmax of the agent was known.
Compounds. The drugs and investigational agents: BI-3406 (NSC825286), BAY-293 (NSC824723), batoprotafib (TNO155; NSC825523), sotorasib (AMG 510; NSC818433), MRTX1257 (NSC819558), elimusertib (BAY 1895344; NSC800525), molibresib (GSK525762; NSC774829), temuterkib (LY3214996; NSC803410), venetoclax (NSC766270), alisertib (NSC759677), olaparib (NSC753686), talazoparib (NSC767125), erdafitinib (NSC781556), ipatasertib (NSC767898), cabozantinib (NSC761068), nintedanib (NSC756659), abemaciclib (NSC768073), docetaxel (NSC628503), trametinib (NSC758246), and sapanisertib (NSC764658) were obtained from the National Cancer Institute (NCI) Developmental Therapeutics Program Chemical Repository. The FDA-approved anticancer drug set is available from the Developmental Therapeutics Program. […] The stock solutions were prepared in dimethyl sulfoxide (DMSO, Sigma-Aldrich, St. Louis, MO, cat. D2650) at 800-fold the tested concentration and stored at -70 degrees C prior to their use. All drugs and investigational agents were tested over a range starting from a high concentration at or near the clinical Cmax and decreasing in half-log increments. If the clinical Cmax for an agent had not been determined, the highest concentration tested was 10 microM.
Cell Culture. All cells were maintained in an incubator at 37 degrees C and 5% CO2 with 95% humidity. The PDC lines were cultured according to standard operating procedures established by the NCI PDMR (https://pdmr.cancer.gov/sops/default.htm). Briefly, all PDCs were thawed and cultured in Matrigel-coated flasks prepared with a working solution of 1X Ham's F-12 nutrient mix, without supplementation (Invitrogen, Waltham, MA, cat. 11765054), 100 U/mL penicillin-streptomycin (Invitrogen, cat. 15140122), and 2.5% Matrigel (Corning Inc., Corning, NY, cat. 354248) for the first three passages. All PDCs were cultured in complete DMEM/F-12 media containing advanced DMEM/F-12 (Invitrogen, cat. 12634028), 4.9% defined fetal bovine serum, heat inactivated (HyClone Laboratories Inc., Logan, UT, cat. SH30070.03HI), 389 ng/mL hydrocortisone (Sigma-Aldrich, cat. H4001), 9.7 ng/mL human EGF recombinant protein (Invitrogen, cat. PHG0313), 23.4 microg/mL adenine (Sigma-Aldrich, cat. A2786), 97.3 U/mL penicillin-streptomycin (Invitrogen, cat. 15140122), 1.9 mM L-glutamine (Invitrogen, cat. 25030081), and 9.7 microM Y-27632 dihydrochloride (Tocris Bioscience, Bristol, United Kingdom, cat. 1254). The PDCs were cultured in complete DMEM/F12 media without 9.7 microM Y-27632 dihydrochloride for at least two passages prior to the screen. The established cell line HOP-62 was cultured in RPMI 1640 medium, HEPES (Invitrogen, cat. 22400105) with 10% defined fetal bovine serum (HyClone Laboratories Inc., cat. SH30070.03) and 2 mM L-glutamine (Invitrogen, cat. 25030081). The pooled donor HUVEC were cultured in endothelial cell growth medium 2 (PromoCell, Heidelberg, Germany, cat. C-22011) and the hMSC were cultured in mesenchymal stem cell growth medium 2 (PromoCell, cat. C-28009). For all experiments, HUVEC and hMSC were used at passages </=5, while the malignant cell lines were used at passages </=15. […]
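Further: spheroids exposed to compounds for seven days before readout.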

SMILES: CCN1CCN(Cc2ccc(Nc3ncc(F)c(-c4cc(F)c5nc(C)n(C(C)C)c5c4)n3)nc2)CC1
- viability, T/C (compound 0.00316 µM): 60.9% [middle of 5 runs]
- viability, T/C (compound 0.01 µM): 35.7% [middle of 5 runs]
- viability, T/C (compound 0.0316 µM): 19.6% [middle of 5 runs]
- viability, T/C (compound 0.1 µM): 16.7% [middle of 5 runs]
- viability, T/C (compound 0.316 µM): 14.5% [middle of 5 runs]
- viability, T/C (compound 1 µM): 5.13% [middle of 5 runs]

SMILES: CCNC(=O)CC1N=C(c2ccc(Cl)cc2)c2cc(OC)ccc2-n2c(C)nnc21 (centres undefined)
- viability, T/C (compound 0.1 µM): 57.3% [middle of 5 runs]
- viability, T/C (compound 0.316 µM): 30.4% [middle of 5 runs]
- viability, T/C (compound 1 µM): 8.84% [middle of 5 runs]
- viability, T/C (compound 3.16 µM): 2.06% [middle of 5 runs]
- viability, T/C (compound 10 µM): 1.07% [middle of 5 runs]
- IC50 (curve of compound): 138 nM [middle of 5 runs]

SMILES: CN(C)C/C=C/C(=O)Nc1cc2c(Nc3ccc(F)c(Cl)c3)ncnc2cc1O[C@H]1CCOC1
- viability, T/C (compound 0.001 µM): 94.4% [middle of 5 runs]
- viability, T/C (compound 0.0316 µM): 99% [middle of 5 runs]
- viability, T/C (compound 0.1 µM): 97.2% [middle of 5 runs]
- IC50 (curve of compound): > 100 nM

SMILES: CNCc1ccccc1-c1csc(C(C)Nc2nc(C)nc3cc(OC)c(OC)cc23)c1 (centres undefined)
- viability, T/C (compound 10 µM): 0.1% [middle of 12 runs]
- IC50 (compound alone, run of 07/19/2021): 1.6 µM [middle of 5 runs]
- IC50 (compound alone, run of 07/26/2021): 1.09 µM [middle of 6 runs]

SMILES: COC(=O)c1ccc2c(C(=Nc3ccc(N(C)C(=O)CN4CCN(C)CC4)cc3)c3ccccc3)c(O)[nH]c2c1
- viability, T/C (compound 3.16 µM): 24.1% [middle of 5 runs]
- viability, T/C (compound 10 µM): 16.1% [middle of 5 runs]

SMILES: COc1cc(Nc2ncc3c(n2)-c2ccc(Cl)cc2C(c2c(F)cccc2OC)=NC3)ccc1C(=O)O
- viability, T/C (compound 0.1 µM): 27.8% [middle of 5 runs]
- viability, T/C (compound 0.316 µM): 33.1% [middle of 5 runs]
- viability, T/C (compound 1 µM): 35.6% [middle of 5 runs]
- viability, T/C (compound 3.16 µM): 33.9% [middle of 5 runs]
- viability, T/C (compound 10 µM): 24.8% [middle of 5 runs]
- IC50 (curve of compound): < 31.6 nM and 43.2 nM

SMILES: COc1cc(OC)cc(N(CCNC(C)C)c2ccc3ncc(-c4cnn(C)c4)nc3c2)c1
- viability, T/C (compound 0.0316 µM): 99% [middle of 4 runs]
- viability, T/C (compound 0.1 µM): 102% [middle of 4 runs]
- viability, T/C (compound 1 µM): 98.2% [middle of 4 runs]
- viability, T/C (compound 3.16 µM): 38.9% [middle of 4 runs]
- viability, T/C (compound 10 µM): 0.57% [middle of 4 runs]
- IC50 (curve of compound): 2.53 µM [middle of 4 runs]

SMILES: COc1cc2nccc(Oc3ccc(NC(=O)C4(C(=O)Nc5ccc(F)cc5)CC4)cc3)c2cc1OC
- viability, T/C (compound 0.0316 µM): 102% [middle of 5 runs]
- viability, T/C (compound 0.1 µM): 98.8% [middle of 5 runs]
- viability, T/C (compound 0.316 µM): 94.4% [middle of 5 runs]
- viability, T/C (compound 3.16 µM): 14.4% [middle of 5 runs]
- IC50 (curve of compound): 1.76 µM [middle of 5 runs]

SMILES: Cn1nccc1Nc1nccc(-c2cc3c(s2)C(C)(C)N(CCN2CCOCC2)C3=O)n1
- viability, T/C (compound 0.0316 µM): 56.4% [middle of 5 runs]
- viability, T/C (compound 0.1 µM): 40.2% [middle of 5 runs]
- viability, T/C (compound 0.316 µM): 21.2% [middle of 5 runs]
- viability, T/C (compound 1 µM): 14.3% [middle of 5 runs]
- viability, T/C (compound 3.16 µM): 7.8% [middle of 5 runs]
- viability, T/C (compound 10 µM): 5.9% [middle of 5 runs]
- IC50 (curve of compound): 52.2 nM [middle of 5 runs]

SMILES: Cn1ncnc1[C@H]1c2n[nH]c(=O)c3cc(F)cc(c23)N[C@@H]1c1ccc(F)cc1
- viability, T/C (compound 0.000316 µM): 104% [middle of 5 runs]
- viability, T/C (compound 0.001 µM): 96.9% [middle of 5 runs]
- viability, T/C (compound 0.00316 µM): 96.4% [middle of 5 runs]
- viability, T/C (compound 0.01 µM): 94.2% [middle of 5 runs]
- viability, T/C (compound 0.0316 µM): 86.2% [middle of 5 runs]
- viability, T/C (compound 0.1 µM): 78.7% [middle of 5 runs]
- IC50 (curve of compound): > 100 nM

SMILES: O=C(c1cc(Cc2n[nH]c(=O)c3ccccc23)ccc1F)N1CCN(C(=O)C2CC2)CC1
- viability, T/C (compound 0.0316 µM): 91.8% [middle of 5 runs]
- viability, T/C (compound 0.1 µM): 94.4% [middle of 5 runs]
